According to US7250422B2 (priority 2002, dated 2007):

Key:
Male ICR mice [1] = test: Conditioned place preference test for psychological dependence on morphine; details: p<0.01, FIG. 1
Description: (§1) 10 to 15 mice per group were used.

Male ICR mice [2] = test: Spontaneous locomotor activity increased by morphine (Video-tracking system); type: in vivo; details: for locomotor activity (steps): six days; for suppression of locomotor activity increased by morphine vs morphine control group: p<0.001
Method: as §1
Spontaneous locomotor activity was tested in a plastic chamber (26×30×30 cm) using a Video-tracking system. […] Immediately after the last administration, the mice were placed in the plastic chamber, and spontaneous locomotor activity was recorded for 30 min and analyzed using a computer program.

mice = test: Hot-plate test, morphine tolerance caused by repeated administration; type: in vivo; details: berberine 10 mg/kg i.p. 30 min before morphine 10 mg/kg s.c., six days, tested day 7; P<0.01; FIG. 4
Male ICR mice [3] = details: berberine 1, 3 and 10 mg/kg i.p. 30 min before morphine 5 mg/kg s.c.; FIG. 3
rats = details: intraperitoneal injection; cited from earlier work

Structure (SMILES) | inhibition of psychological dependence on morphine (Male ICR mice [1]; berberine 1 or 2 mg/kg orally one hour before morphine 5 mg/kg i.p., equal to saline control) | locomotor activity (steps) (Male ICR mice [2]; berberine 1 mg/kg orally one hour before morphine 10 mg/kg, recorded 30 min) | suppression of locomotor activity increased by morphine vs morphine control group (Male ICR mice [2]; berberine 1 mg/kg orally) | locomotor activity (steps) (Male ICR mice [2]; berberine 2 mg/kg orally one hour before morphine 10 mg/kg, recorded 30 min) | suppression of locomotor activity increased by morphine vs morphine control group (Male ICR mice [2]; berberine 2 mg/kg orally) | inhibition of the development of morphine tolerance (AUC) (mice) | effect on the analgesic effect of morphine (AUC of % MPE) (Male ICR mice [3]) | LD50 (rats) | development of psychological dependence (testing time minus preconditioning time) (Male ICR mice [1]; morphine control, 5 mg/kg i.p. on days 3, 5, 7, 9) | locomotor activity (steps by a forefoot) (Male ICR mice [2]; only morphine 10 mg/kg once per day for six days, recorded 30 min)
COc1ccc2cc3[n+](cc2c1OC)CCc1cc2c(cc1-3)OCO2 [berberine, 7,8,13,13a-tetradihydro-9,10-dimethoxy-2,3-(methyldioxy)berbinium] | completely inhibited | 19744 steps | 61% | 20027 steps | 60% | significantly inhibited | rarely affect the analgesic effect of morphine | 90 mg/kg |  | 
CN1CC[C@]23c4c5ccc(O)c4O[C@H]2[C@@H](O)C=C[C@H]3[C@H]1C5 [morphine] |  |  |  |  |  |  |  |  | significant psychological dependence | 50242 steps
